Data on six molecules can be found in patent US6358517B1, “Cosmetic compositions containing resveratrol and retinoids” (Unilever Home & Personal Care USA, division of Conopco, priority 1999, dated 2002).

Experiment [1] has as its system Cellular Retinoic Acid Binding Protein 2 (CRABP-2). The experiment can be described thus: CRABP-2 expression in human adult skin fibroblasts, Western blot. It is filed as cell-based. The settings on record: for CRABP-2 expression in skin fibroblasts in combination with resveratrol (in words): retinoid combined with resveratrol, summary of Tables 2A and 2B. Here is the method:
Human adult fibroblasts obtained from sun-protected inner arm of the […] were used. Cells were grown in 1:1 DMEM/Hams F12 media containing 10% FBS, maintained at 37° C. in a 5% CO2 atmosphere under normal atmospheric oxygen tension. Third passage adult fibroblasts were grown in DMEM media with 10% FBS in 12-well plates at a seeding density of 40,000 cells/ml/well. The cells at 80% confluence were rinsed in serum free and phenol red free (PRF) DMEM media twice. Cells were pretreated with resveratrol for 4 hours was conducted and then dosed with retinoids and incubated for a further 48 hours. After the incubation, the wells were washed twice with 1×PBS and the cell monolayer was harvested in 100 μl cell lysis buffer (contained 1×PBS, 1% TritonX, 0.5% sodium deoxycholate, 0.1% SDS containing protease inhibitor (10 mg/ml PMSF in isopropanol, 10 μl/ml). The suspension was spun at 14000 rpm for 10 minutes, the supernatant collected and an aliquot of this supernatant was used for protein quantification. Protein concentration was determined using Pierce protein kit. The remainder of 1 00ul supernatant (cell lysate) was denatured in a mixture of 40 μl sample buffer (NOVEX) and 0.5% Beta mercaptoethanol (BME) and by boiling the sample for 5 minutes.
(§1) Within the cells, retinol and retinoic acid are bound to specific cellular binding proteins. Two of the major proteins are CRABP-1 and CRABP-2 (Roos et al., Pharmacological reviews: 50, 315-333, 1998). These proteins regulate the intracellular concentration of retinoids by acting as either storage or shuttle proteins in retinoid metabolism. The levels of CRABP protein are regulated by the amount of retinoic acid within the cells. Higher cellular levels of retinoids increase the expression of CRABP-2. Therefore, the amount of this protein in the cells, is a measure of the retinoid activity of the cells. Skin cells contain high levels of CRABP-2 both in the epidermis and the dermis. CRABP-2 response to retinoid administration in fibroblasts in vitro is used as a reproducible measure of retinoid bioactivity that predict human skin responses (Elder et al., J. Invest. Dermatol., 106: 517-521, 1996). Increase in CRABP-2 is also associated with increased epidermal differentiation, and dermal retinoid action. Therefore, in these studies we used CRABP-2 expression of fibroblasts and pig skin epidermis as a measure of retinoid activity leading to increased epidermal differentiation (skin conditioning and dry skin benefit) and dermal collagen and extracellular matrix synthesis (antiaging, anti wrinkling benefits).
To measure the levels of CRABP-2 in the fibroblast and pig skin extracts prepared as described above, the cell supernatant was re-suspended in 4×sample buffer and 10% BME, boiled for 5 minutes and used for western blotting. Equal amounts of protein were loaded onto 16% Tris-glycine gels for CRABP-2 protein analysis by SDS-PAGE and Western Immuno-blotting. The gels were transferred to PVDF membranes and Western Blotting was carried out using monoclonal antibodies to CRABP-2 according to standard procedures. The CRABP-2 protein band was visualized in the Western Blots using the chemiluminescence system obtained from Boehringer Mannheim (Indianopolis, Ind.). The bands in the film were quantified by densitometric scanning, the data from triplicate samples were calculated as % of control and expressed in the following tables as % increase over control (with control as 100%) +/− standard deviation. […]

Experiment [2] shares this test system. Description: CRABP-2 expression in pig skin organ culture (epidermis), Western blot. It counts as cell-based. The settings on record: for effects on CRABP-2 expression (in words): alone, pig skin epidermis, summary of Table 1. The method, then:
7 mm pig skin biopsies were taken, plated in serum free DMEM, and incubated for 2 days. The media was then switched to phenol-red free media. The biopsies were topically treated with resveratrol for 24 hrs in 5 μl ethanol per biopsy. After 24 hours, retinoids were topically applied to the biopsies. The treated biopsies were incubated for 4 days thereafter. After treatment phase, the biopsies were rinsed in 1×phosphate-buffer twice and then frozen at −20° C. for future use. The epidermis and dermis was separated by freezing and scraping off the epidermis. The epidermis was collected and homogenized in lysis buffer (contains 1×PBS, 1% TritonX, 0.5% sodium deoxycholate, 0.1% SDS containing protease inhibitor (10 mg/ml PMSF in isopropanol at 10 μl/ml, Aprotinin 30 μl/ml and 100 mM sodium orthovanadate at 10 μl/ml). This homogenate was then spun at 14000 rpm and the supernatant was collected for determining protein (aliquot of the supernatant for protein determination).
as §1, with “Two of the major proteins are CRABP-1 and CRABP-2 (Roos et al., Pharmacological reviews: 50, 315-333, 1998).” left out, “CRABP-2 response to retinoid administration in fibroblasts in vitro is used as a reproducible measure of retinoid bioactivity that predict human skin responses (Elder et al., J. Invest. Dermatol., 106: 517-521, 1996).” left out
To measure the levels of CRABP-2 in the fibroblast and pig skin extracts prepared as described above, the cell supernatant was re-suspended in 4×sample buffer and 10% BME, boiled for 5 minutes and used for western blotting. […] The gels were transferred to PVDF membranes and Western Blotting was carried out using monoclonal antibodies to CRABP-2 according to standard procedures. The CRABP-2 protein band was visualized in the Western Blots using the chemiluminescence system obtained from Boehringer Mannheim (Indianopolis, Ind.). The bands in the film were quantified by densitometric scanning, the data from triplicate samples were calculated as % of control and expressed in the following tables as % increase over control (with control as 100%) +/− standard deviation.

Setting [3] is: Homo sapiens, Skin fibroblast, Table 2A, 100 nM alone, read-out: % of Control.
The mark [4] stands for this setting: Table 2B, 10 μM Resveratrol alone.
Setting [5] is: Table 2B, 10 μM Retinoic acid alone.

Structures are written as SMILES.

Turning to `CCCCCCCCCCCCCCCC(=O)OC/C=C(C)/C=C/C=C(C)/C=C/C1=C(C)CCCC1(C)C` [Retinyl Palmitate], the activity at 0.1 µM in experiment [1] (setting [3]) was determined as 25%. The CRAB-2 production in experiment [1] (Table 2A, 100 nM alone) was 0.376 +/− 0.11. Further, the “% as Control” value in experiment [1] (Table 2B, 1 μM alone) is given as 503 +/− 260%; in experiment [1] (Table 3, 100 nM alone), 254 +/− 101%. The CRABP-2 production in experiment [1] (Table 2B, 1 μM alone) is on record as 2.87 +/− 1.48; in experiment [1] (Table 3, 100 nM alone) it was 1.143 +/− 0.45. For the same molecule, the “CRABP-2 expression in skin fibroblasts in combination with resveratrol (in words)” value in experiment [1] is recorded as “not effective”.

As to `CC(=O)OC/C=C(C)/C=C/C=C(C)/C=C/C1=C(C)CCCC1(C)C` [Retinyl Acetate], the activity at 0.1 µM in experiment [1] (setting [3]) is 56%. The “CRABP-2 expression in skin fibroblasts (in words)” value in experiment [1] (Low levels (100 nm), either alone or in combination with resveratrol) was “ineffective”; in experiment [1] (higher levels (Table 2B), in the presence of reveratrol), “stimulated CRABP-2 expression”. Besides, in experiment [1] (Table 2A, 100 nM alone), the CRAB-2 production is recorded as 0.876 +/− 0.20. The “% as Control” value in experiment [1] (Table 2B, 1 μM alone) was 178 +/− 102%; in experiment [1] (Table 3, 100 nM alone), 124 +/− 42%. The CRABP-2 production in experiment [1] (Table 2B, 1 μM alone) was 1.01 +/− 0.58; in experiment [1] (Table 3, 100 nM alone), 0.561 +/− 0.19.

For `Oc1ccc(/C=C/c2cc(O)cc(O)c2)cc1` [Resveratrol, 5-parahydroxystyryl resorcinol], the activity at 50 µM in experiment [2] (Sus scrofa, Experiment 1, 50 μM, topical on pig skin biopsies, read-out: CRABP-2, Alone (% of control, control as 100%)) came out at 143%. Further, the activity at 20 µM in experiment [2] (Sus scrofa, Experiment 2, 20 μM, topical on pig skin biopsies, read-out: CRABP-2, Alone (% of control, control as 100%)) was found to be 242%. Also, the “effects on CRABP-2 expression (in words)” value in experiment [2] is “only minimal, insignificant effects”. The activity at 10 µM in experiment [1] (Homo sapiens, Skin fibroblast, Table 2A, 10 μM alone, read-out: % of Control) was 27%. The CRAB-2 production in experiment [1] (Table 2A, 10 μM alone) is on record as 0.416 +/− 0.12. For the same molecule, in experiment [1] (setting [4]), the “% as Control” value is reported as 32 +/− 1% and the CRABP-2 production is 0.185.

As to `CC1=C(/C=C/C(C)=C/C=C/C(C)=C/C(=O)O)C(C)(C)CCC1` [Retinoic acid], in experiment [1] (Homo sapiens, Skin fibroblast, Table 2A, 1 nM alone, read-out: % of Control), the activity at 0.001 µM was 132%. Moreover, the activity at 0.01 µM in experiment [1] (Homo sapiens, Skin fibroblast, Table 2A, 10 nM alone, read-out: % of Control) was found to be 165%. Besides, the CRAB-2 production is 2.056 +/− 0.50 in experiment [1] (Table 2A, 1 nM alone) and 2.566 +/− 0.19 in experiment [1] (Table 2A, 10 nM alone). Besides, the “% as Control” value in experiment [1] (setting [5]) was 574 +/− 60%; in experiment [1] (Table 3, 10 nM alone) it was 266 +/− 80%. The CRABP-2 production in experiment [1] (setting [5]) is recorded as 3.27 +/− 0.34; in experiment [1] (Table 3, 10 nM alone), 1.201 +/− 0.36.

Turning to `CCCCC/C=C\C/C=C\CCCCCCCC(=O)OC/C=C(C)/C=C/C=C(C)/C=C/C1=C(C)CCCC1(C)C` [Retinyl Linoleate], in experiment [1] (Table 2A, 100 nM alone), the “% of Control” value was 57 +/− 14% and the CRAB-2 production is given as 0.88 +/− 0.23. The “% as Control” value in experiment [1] (Table 2B, 1 μM alone) was 112 +/− 75%. Also, in experiment [1] (Table 3, 100 nM alone), the “% as Control” value was 253 +/− 127% and the CRABP-2 production is reported as 1.141 +/− 0.57.

As to `CC1=C(/C=C/C(C)=C/C=C/C(C)=C/CO)C(C)(C)CCC1` [Retinol], the activity at 5 µM in experiment [2] (Sus scrofa, Experiment 2, 5 μM, topical on pig skin biopsies, read-out: CRABP-2, Alone (% of control, control as 100%)) was determined as 345%. Also, in experiment [2], the “effects on CRABP-2 expression (in words)” value was “significantly higher stimulation”. Besides, the “% as Control” value was 270 +/− 73% in experiment [1] (Table 2B, 1 μM alone) and 308 +/− 108% in experiment [1] (Table 3, 100 nM alone). Besides, the CRABP-2 production in experiment [1] (Table 2B, 1 μM alone) is 1.54 +/− 0.41; in experiment [1] (Table 3, 100 nM alone) it was 1.387 +/− 0.49. In addition, the “CRABP-2 expression in skin fibroblasts in combination with resveratrol (in words)” value in experiment [1] is “effective”.
